# Data from patent US20030166007A1, “Chemical proteomics” (MDS Proteomics Inc., priority 2002, published 2003).
# Molecular target: T1, AIR carboxylase (Homo sapiens, UniProt P22234)
# T1 construct: endogenous in cells; host or cells: HEK 293
# T1 sequence (P22234 1-425): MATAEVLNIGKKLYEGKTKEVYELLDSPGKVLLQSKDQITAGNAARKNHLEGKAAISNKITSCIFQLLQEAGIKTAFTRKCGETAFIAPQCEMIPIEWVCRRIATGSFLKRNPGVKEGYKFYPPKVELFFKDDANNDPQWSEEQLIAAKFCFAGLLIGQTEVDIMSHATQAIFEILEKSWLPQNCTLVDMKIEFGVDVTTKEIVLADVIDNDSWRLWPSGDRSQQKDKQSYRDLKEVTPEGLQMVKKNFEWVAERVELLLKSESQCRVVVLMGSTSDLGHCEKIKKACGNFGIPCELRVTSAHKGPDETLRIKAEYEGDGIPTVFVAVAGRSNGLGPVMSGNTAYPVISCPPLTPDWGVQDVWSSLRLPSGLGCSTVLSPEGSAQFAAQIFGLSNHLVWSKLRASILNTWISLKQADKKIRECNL
# Assay: MTX-agarose affinity chromatography of cell lysate, MS identification
# Format: binding
# Settings: HEK 293 lysate
# Procedure: After incubation for 30 minutes at 4° C. with shaking, the lysates were clarified by centrifugation (27,000×g). In some experiments, cells were lysed using 20 strokes of a Dounce® homogenizer in the absence of detergents. […] While optimizing the protocol, however, several experimental variations were tested on cell lysates including concentration by ammonium sulfate precipitation, or removal of nucleic acid with Streptomycin sulfate. In such cases, the protein sample was desalted using a PD 10 protein-desalting column (Pharmacia), which had been pre-equilibrated in the same buffer (10 mM potassium phosphate pH 7.5)
# Affinity Chromatography: The desalted lysate was loaded onto a column of pre-equilibrated MTX-agarose (Sigma, 50 μL bed volume) or sepharose 4B agarose as a negative control. The lysates were allowed to slowly flow through the matrix under gravity flow. […] Retentates from the microcons were then loaded onto SDS-PAGE 4%-15% gradient mini gels (Bio-Rad). […]
# The peptides were then separated by reverse phase chromatography on C18 resin and directly injected into a mass spectrometer using an automated sample-loading device from 96 well plates. […] The spectra generated were analyzed on a custom-built multi-node server platform (RADARS, ProteoMetrics), which uses two database searching programs, Sonar (ProteoMetrics) and Mascot (Matrix Sciences). […]
structure (smiles),measurement,value
CN(Cc1cnc2nc(N)nc(N)c2n1)c1ccc(C(=O)N[C@@H](CCC(=O)O)C(=O)O)cc1 [Methotrexate],Association with the Methotrexate matrix,associated indirectly with Methotrexate
